Laboratory results taken from patent US20220243160A1, “Method and Apparatus for Interrogating Biological Systems” (Arizona Board of Regents on Behalf of the University of …, priority 2019, published 2022).

Assays:
Type in all cases: cell-based
[1] = tested on: ovarian cancer cells cultivated in a 2D cell arrangement; experiment: Clonogenic assay for radiosensitizing effect, 2D culture; conditions: 0.7 μM 1 h before irradiation at 0, 2, 4 or 6 Gy
Description: The radiosensitizing effect was assessed with a clonogenic assay. […] The medium was removed right after irradiation and replaced by a drug-free medium, changed twice a week for the rest of the experiment. Clonogenic assay was stopped when colonies containing at least 50 cells were observed under the microscope. Error bar represent mean±SEM from 3 independent experiments with at least 2 replicates each.

[2] = tested on: Monolayer SKOV3 cells; experiment: γ-H2AX / 53BP1 foci immunofluorescence after irradiation; conditions: 0.7 μM 1 h before irradiation at 0 or 2 Gy, 6 h, 24 h after irradiation
Description: Cells were seeded on coverslip at a density of 5×10^4 per mL and exposed to DMSO or WD at a concentration of 0.7 μM 1 h before being irradiated at 0 or 2 Gy. The medium was removed and replaced by a drug-free medium immediately after irradiation. FIG. 6A. Images of immunofluorescence elicited in SKOV3 cells 1 h, 6 h and 24 h after irradiation taken using an Epifluorescence microscope at a magnification of 63×. […] Scale bar=10 μm. […] Values are normalized with non-irradiated cells, exposed to DMSO or WD respectively. […] Values are normalized with non-irradiated cells, exposed to DMSO or WD respectively. All the data are presented as the mean±SEM of at least 60 nuclei. *Significant differences as determined by Student's t-test (p<0.05).

[3] = tested on: NHEJ DNA repair pathway; experiment: Western blot of DNA repair proteins after irradiation; conditions: SKOV3 2D, 0.7 μM 1 h before irradiation at 0 or 2 Gy
Description: Western blot showing expression level of ATM, S1981pATM, DNA-PKcs, S2056pDNA-PKcs, XRCC4, RPA70 and RAD51 in SKOV3 cells cultivated in 2D. Cells were exposed to DMSO or WD at a concentration of 0.7 μM 1 h before undergoing an irradiation at 0 or 2 Gy. Proteins within cells were extracted 1 h, 6 h or 24 h after irradiation. A total of 5 μg of proteins was loaded. Bands intensities were quantified using ImageJ, normalized with GAPDH. Numbers represent expression level compared to non-irradiated cells. NI=Non-irradiated samples.

[4] = tested on: spheroids of SKOV3 ovarian cancer cells; experiment: Spheroid volume growth after drug and irradiation; conditions: 0.7 μM 1 h before irradiation at 0 Gy or 4 Gy, followed 19 days
Description: FIG. 8 includes a schematic overview of experiment. Cells were plated in an ultra-low affinity 96 well plate with a round bottom and allowed to form spheroids for 5 days. […] The medium containing drug was replaced by a drug-free medium after 4 days, then freshly changed twice a week for the rest of the experiment. Diameter of each spheroid was measured two or three times a week for 19 days with Micrometrics SE Premium software. Spheroid volume growth over time. Volume were normalized to day 0. Error bars represent mean±SEM for at least 5 replicates.

[5] = tested on: SKOV3 ovarian cancer cells; experiment: MTT antiproliferative assay on SKOV3 cells in monolayer (2D); conditions: for IC50: SKOV3 cells cultured in monolayer, 48 h exposure
[6] = tested on: SKOV3 spheroids; experiment: MTT antiproliferative assay on SKOV3 spheroids; conditions: for antiproliferative effect: SKOV3 spheroids; for IC50: SKOV3 spheroids (5 days formation), 48 h exposure
Description: Twenty thousand cells were seeded in an ultra-low affinity round bottom 96 well plates and 5 days were allowed for spheroids formation. […] Error bars represent mean±SEM from 3 independent experiments of at least 6 replicates each.

Compound	radiosensitizing effect [1]	DNA DSBs (γ-H2AX and 53BP1 foci) versus DMSO [2]	mechanism of radiosensitization (expression of ATM, pATM, DNA-PKcs, pDNA-PKcs, XRCC4, RPA70, RAD51) [3]	radiosensitization of spheroids (normalized volume) [4]	cytotoxic effect ([5]; SKOV3 2D, 0.156 to 80 μM, 48 h)	IC50 [5]	antiproliferative effect [6]	IC50 [6]
CC1=C(C)C(=O)O[C@@H]([C@](C)(O)[C@H]2CC[C@H]3[C@@H]4C[C@H]5O[C@]56[C@@H](O)C=CC(=O)[C@]6(C)[C@H]4CC[C@]23C)C1 [WD, withanolide D]	have a radiosensitizing effect	more DNA DSBs over 24 h than those exposed to DMSO	inhibiting the NHEJ DNA repair pathway	do not radiosensitize	dose-dependent cytotoxic effect	4.2 µM	significant antiproliferative effect	16 µM
CC1=C(CO)C(=O)O[C@@H]([C@@H](C)[C@H]2CC[C@H]3[C@@H]4C[C@H]5O[C@]56[C@@H](O)C=CC(=O)[C@]6(C)[C@H]4CC[C@]23C)C1 [WFA, withaferin A]	have a radiosensitizing effect			do not radiosensitize		4.4 µM	significant antiproliferative effect	23 µM
